biological target: T1, human B1R receptor (CHO K1 cells stably transfected with the human B1R gene) (Homo sapiens, UniProt P46663); assay: Functional study on the bradykinin receptor 1 (B1R), Ca2+ fluorescence (Fluo-4) FLIPR/Novostar assay, hB1R cells; format: cell-based; settings: CHO-K1, read-out: % inhibition (human B1R) at 10 μM
T1 construct: expressed in transfected cells; host or cells: CHO K1 cells (Chinese hamster ovary), stably transfected
T1 sequence (P46663 1-353): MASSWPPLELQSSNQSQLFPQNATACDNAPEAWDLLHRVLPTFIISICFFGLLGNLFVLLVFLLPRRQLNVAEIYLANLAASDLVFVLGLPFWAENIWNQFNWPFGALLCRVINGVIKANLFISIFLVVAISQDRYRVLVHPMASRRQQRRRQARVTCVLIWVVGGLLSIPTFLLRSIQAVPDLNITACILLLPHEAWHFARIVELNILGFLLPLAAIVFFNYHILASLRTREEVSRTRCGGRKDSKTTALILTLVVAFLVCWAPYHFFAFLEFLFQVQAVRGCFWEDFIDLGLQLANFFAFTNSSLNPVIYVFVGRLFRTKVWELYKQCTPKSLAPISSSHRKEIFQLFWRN
Summary of the method: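 Ca2+ influx (Fluo-4, peak fluorescence, λex 488/λem 540 nm) was measured in CHO K1 lines expressing rat or human B1R. After a 10 μM test-compound pre-addition scoring % activation, cells received EC80 agonist: Des-Arg9-bradykinin for rat, Lys-Des-Arg9-bradykinin for human. Antagonism was expressed as % of maximum inhibition, with IC50 from varied concentrations.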

SMILES	inhibition at 10 µM
CCN(C(=O)c1cccc(F)c1Cl)[C@@H]1CCc2ccc(C(=O)N(C)C3CCN(c4cc(C)nc(C)n4)CC3)cc21 [Example H-197, (3R)-3-[(2-Chloro-3-fluoro-benzoyl)-ethyl-amino]-N-[1-(2,6-dimethyl-pyrimidin-4-yl)-piperidin-4-yl]-N-meihyl-2,3-dihydro-1H-indene-5-carboxylic acid amide]	100%
Cc1cc(N2CCC(N(C)C(=O)c3cc4c(cc3F)CC[C@H]4N(C(=O)c3ccc(F)cc3Cl)C(C)C)CC2)nc(C)n1 [Example H-198, (3R)-3-[(2-Chloro-4-fluoro-benzoyl)-isopropyl-amino]-N-[1-(2,6-dimethyl-pyrimidin-4-yl)-piperidin-4-yl]-6-fluoro-N-methyl-2,3-dihydro-1H-indene-5-carboxylic acid amide]	76%
Cc1cc(N2CCC(N(C)C(=O)c3ccc4c(c3)[C@H](N(C(=O)c3ccc(F)cc3Cl)C(C)C)CC4)CC2)nc(C)n1 [Example H-199, (3R)-3-[(2-Chloro-4-fluoro-benzobenzoyl)-isopropyl-amino]-N-[1-(2,6-dimethyl-pyrimidin-4-yl)-piperidin-4-yl]-N-methyl-2,3-dihydro-1H-indene-5-carboxylic acid amide]	94%
CC(C)N(C(=O)c1ccc(F)cc1Cl)[C@@H]1CCc2ccc(C(=O)N(C)C3CCN(c4ccncc4)CC3)cc21 [Example H-204, (3R)-3-[(2-Chloro-4-fluoro-benzoyl)-isopropyl-amino]-N-methyl-N-(1-pyridin-4-yl-piperidin-4-yl)-2,3-dihydro-1H-indene-5-carboxylic acid amide]	100%
CC(C)N(C(=O)c1ccc(F)cc1Cl)[C@@H]1CCc2cc(F)c(C(=O)N(C)C3CCN(c4ccncc4)CC3)cc21 [Example H-206, (3R)-3-[(2-Chloro-4-fluoro-benzoyl)-isopropyl-amino]-6-fluoro-N-methyl-N-(1-pyridin-4-yl-piperidin-4-yl)-2,3-dihydro-1H-indene-5-carboxylic acid amide]	94%
Cc1cc(N2CCC(N(C)C(=O)c3ccc4c(c3)[C@H](N(C(=O)c3cccnc3C(F)(F)F)C(C)C)CC4)CC2)nc(C)n1 [Example H-207]	44%
CC(C)N(C(=O)c1cccnc1C(F)(F)F)[C@@H]1CCc2ccc(C(=O)N(C)C3CCN(c4ccncc4)CC3)cc21 [Example H-208, N-Isopropyl-N-[(1R)-6-[methyl-(1-pyridin-4-yl-piperidin-4-yl)-carbamoyl]-2,3-dihydro-1H-inden-1-yl]-2-(trifluoromethyl)-pyridine-3-carboxylic acid amide]	45%
Cc1cc(N2CCC(N(C)C(=O)c3cc4c(cc3F)CC[C@H]4N(C(=O)c3cccnc3C(F)(F)F)C(C)C)CC2)nc(C)n1 [Example H-209, N-[(1R)-6-[[1-(2,6-Dimethyl-pyrimidin-4-yl)-piperidin-4-yl]-metyl-carbamoyl]-5-fluoro-2,3-dihydro-1H-inden-1-yl]-N-isopropyl-2-(trifluoromethyl)-pyridine-3-carboxylic acid amide]	10%
CCN(C(=O)c1cc(F)ccc1Cl)[C@@H]1CCc2ccc(C(=O)N(C)C3CCN(c4cc(C)nc(C)n4)CC3)cc21 [Example H-211, (3R)-3-[(2-Chloro-5-fluoro-benzoyl)-ethyl-amino]-N-[1-(2,6-dimethyl-pyrimidin-4-yl)-piperidin-4-yl]-N-meihyl-2,3-dihydro-1H-indene-5-carboxylic acid amide]	99%
Cc1cc(N2CCC(N(C)C(=O)c3ccc4c(c3)[C@H](N(C(=O)c3cc(F)ccc3Cl)C(C)C)CC4)CC2)nc(C)n1 [Example H-212, (3R)-3-[(2-Chloro-5-fluoro-benzoyl)-isopropyl-amino]-N-[1-(2,6-dimethyl-pyrimidin-4-yl)-piperidin-4-yl]-N-methyl-2,3-dihydro-1H-indene-5-carboxylic acid amide]	82%
CNc1nccc(N2CCC(N(C)C(=O)c3ccc4c(c3)[C@H](NC(=O)c3ccccc3Cl)CC4)CC2)n1 [Example H-214, (3R)-3-[(2-Chloro-benzoyl)amino]-N-methyl-N-[1-(2-methylamino-pyrimidin-4-yl)-piperidin-4-yl]-2,3-dihydro-1H-indene-5-carboxylic acid amide]	100%
CCN(C(=O)c1cc(F)ccc1Cl)[C@@H]1CCc2ccc(C(=O)N(C)C3CCN(c4ccncc4)CC3)cc21 [Example H-221, (3R)-3-[(2-Chloro-5-fluoro-benzoyl)-ethyl-amino]-N-methyl-N-(1-pyridin-4-yl-pipendin-4-yl)-2,3-dihydro-1H-indene-5-carboxylic acid amide]	99%

Continued, values first:

inhibition at 10 µM	SMILES
100%	Cc1cc(N2CCC(N(C)C(=O)c3ccc4c(c3)[C@H](NS(=O)(=O)CC(C)C)CC4)CC2)nc(C)n1 [Example H-191, (3R)-N-[1-(2,6-Dimethyl-pyrimidin-4-yl)-piperidin-4-yl]-N-methyl-3-[(2-methyl-propylsulfonyl)amino]-2,3-dihydro-1H-indene-5-carboxylic acid amide]
100%	Cc1cc(N2CCC(N(C)C(=O)c3ccc4c(c3)[C@H](N(C)C(=O)c3cccc(F)c3Cl)CC4)CC2)nc(C)n1 [Example H-195, (3R)-3-[(2-Chloro-3-fluoro-benzoyl)-methyl-amino]-N-[1-(2,6 dimethyl-pyrimidin-4-yl)-piperidin-4-yl]-N-methyl-2,3-dihydro-1H-indene-5-carboxylic acid amide]
98%	Cc1cc(N2CCC(N(C)C(=O)c3ccc4c(c3)[C@H](N(C(=O)c3cccc(F)c3Cl)C(C)C)CC4)CC2)nc(C)n1 [Example H-196, (3R)-3-[(2-Chloro-3-fluoro-benzoyl)-isopropyl-amino]-N-[1-(2,6-dimethyl-pyrimidin-4-yl)-piperidin-4-yl]-N-methyl-2,3-dihydro-1H-indene-5-carboxylic acid amide]
100%	CC(C)N(C(=O)c1cccc(F)c1Cl)[C@@H]1CCc2ccc(C(=O)N(C)C3CCN(c4ccncc4)CC3)cc21 [Example H-202, (3R)-3-[(2-Chloro-3-fluoro-benzoyl)-isopropyl-amino]-N-methyl-N-(1-pyridin-4-yl-piperidin-4-yl)-2,3-dihydro-1H-indene-5-carboxylic acid amide]
100%	CCN(C(=O)c1cccc(F)c1Cl)[C@@H]1CCc2ccc(C(=O)N(C)C3CCN(c4ccncc4)CC3)cc21 [Example H-203, (3R)-3-[(2-Chloro-3-fluoro-benzoyl)-ethyl-amino]-N-methyl-N-(1-pyridin-4-yl-piperidin-4-yl)-2,3-dihydro-1H-indene-5-carboxylic acid amide]
100%	CN(C(=O)c1ccc2c(c1)[C@H](N(C)C(=O)c1cccc(F)c1Cl)CC2)C1CCN(c2ccncc2)CC1 [Example H-205, (3R)-3-[(2-Chloro-3-fluoro-benzoyl)-methyl-amino]-N-methyl-N-(1-pyridin-4-yl-piperidin-4-yl)-2,3-dihydro-1H-indene-5-carboxylic acid amide]
99%	Cc1cc(N2CCC(N(C)C(=O)c3ccc4c(c3)[C@H](N(C)C(=O)c3cc(F)ccc3Cl)CC4)CC2)nc(C)n1 [Example H-210, (3R)-3-[(2-Chloro-5-fluoro-benzoyl)-methyl-amino]-N-[1-(2,6 dimethyl-pyrimidin-4-yl)-piperidin-4-yl]-N-methyl-2,3-dihydro-1H-indene-5-carboxylic acid amide]
100%	Cc1cc(N2CCC(N(C)C(=O)c3cc4c(cc3F)CC[C@H]4NC(=O)c3ccccc3Cl)CC2)nc(C)n1 [Example H-213, (3R)-3-[(2-Chloro-benzoyl)amino]-N-[1-(2,6-dimethyl-pyrimidin-4-yl)-piperidin-4-yl]-6-fluoro-N-methyl-2,3-dihydro-1H-indene-5-carboxylic acid amide]
95%	Cc1cc(N2CCC(CCNC(=O)c3ccc4c(c3)[C@H](NC(=O)c3ccccc3Cl)CC4)CC2)nc(C)n1 [Example H-215, (3R)-3-[(2-Chloro-benzoyl)amino]-N-[2-[1-(2,6-dimethyl-pyrimidin-4-yl)-piperidin-4-yl]-ethyl]-2,3-dihydro-1H-indene-5-carboxylic acid amide]
98%	CCN(C(=O)c1ccc2c(c1)[C@H](NC(=O)c1ccccc1Cl)CC2)C1CCN(c2cc(C)nc(C)n2)CC1 [Example H-216, (3R)-3-[(2-Chloro-benzoyl)amino]-N-[1-(2,6-dimethyl-pyrimidin-4-yl)-piperidin-4-yl]-N-ethyl-2,3-dihydro-1H-indene-5-carboxylic acid amide]
79%	CN(C(=O)c1ccc2c(c1)[C@H](NC(=O)c1ccccc1Cl)CC2)C1CCN(c2cc[nH]c(=O)c2)CC1 [Example H-219, (3R)-3-[(2-Chloro-benzoyl)amino]-N-methyl-N-[1-(2-oxo-1H-pyridin-4-yl)-piperidin-4-yl]-2,3-dihydro-1H-indene-5-carboxylic acid amide]
99%	CCN(C(=O)c1c(F)cccc1Cl)[C@@H]1CCc2ccc(C(=O)N(C)C3CCN(c4ccncc4)CC3)cc21 [Example H-220]
99%	Cc1cc(N2CCC(N(C)C(=O)c3ccc4c(c3)[C@H](NC(=O)CC(C)C(C)C)CC4)CC2)ccn1 (stereo partly drawn) [Example H-222, (3R)-3-(3,4-Dimethyl-pentanoylamino)-N-methyl-N-[1-(2-methyl-pyridin-4-yl)-piperidin-4-yl]-2,3-dihydro-1H-indene-5-carboxylic acid amide]

Source: US8680159B2, “Bradykinin 1 receptor modulating compounds” (Gruenenthal GmbH, priority 2010, dated 2014)
